The test has as its system human PBMCs co-cultured with OVCAR8 cells. The test can be described thus: Co-culture of OVCAR8 cells and stimulated human PBMCs, 1:10 OVCAR8:PBMC ratio. The test is classed as cell-based. The note with it: for Immunosuppressive effect (reduction in TNFα/cytokines) compared with controls rPD-L1 and MN_Null: 1:10 OVCAR8:PBMC co-culture, FIG. 10D; for TNFα levels / IL-2 levels: 1:10 OVCAR8:PBMC, 24 hours, vs untreated co-culture control; for TNFα levels: ELISA, FIG. 10C; for IL-2 levels: FIG. 10B. How it is done: For this model, PBMCs and cancer cells were both stimulated prior to co-culture to promote expression of PD-1 and PD-L1, respectively.
OVCAR8 cells, generously provided by the Gottesman Lab (National Institutes of Health, Bethesda, MD, USA), and MDA-MB-231 cells (American Type Culture Collection, Rockville, MD, USA) were cultured in Gibco RPMI 1640 media (ThermoFisher Scientific, Cat. No. 11-875-093) supplemented with 10% Gibco fetal bovine serum (ThermoFisher Scientific, Cat. No. 10437028), and 1% penicillin/streptomycin (10,000 U/mL pen, 10 mg/mL strcp) from MilliporeSigma (Burlington, MA, USA, Cat. No. P4333). Cells were cultured at 37° C. and 5% CO2. Passage number was kept below 3 for co-culture assay. Human peripheral blood mononuclear cells were purchased frozen from […] PBMCs were thawed according to manufacturer's instructions one day before co-culture and cultured in the same media and conditions as cancer cell lines.
The next day, cells were stimulated with 100 ng/mL IFNγ and two vials of human PBMCs were thawed. On Day 3, concentrations of PBMCs and OVCAR8 cells (harvested from a control well) were measured using the QuadCount Automated Cell Counter. The concentration of PBMCs required for a 1:10 OVCAR8:PBMC ratio was calculated from the OVCAR8 concentration. PBMCs were plated on a separate 24-well plate (1 mL/well) and stimulated with 5 μg/mL of anti-CD3 and 5 μg/mL of anti-CD28 for 30 minutes before drug treatment. […] After 30 minutes, media was removed from OVCAR8 wells without treatment, and replaced with 1 mL of treated PBMCs. After 24 hours, the supernatants were collected from each well, and centrifuged at 10,000×g for 5 minutes to remove any remaining cells.
Briefly, samples from co-culture experiments with excess OVCAR8 ratios were diluted 1:10 in assay buffer, and samples from co-culture experiments with excess PBMC ratios were diluted 1:5 in assay buffer. Next, 10 μL of the diluted samples were mixed with 10 μL of an IL-2 antibody-oligonucleotide conjugate mixture and added to a 96-well working plate. Samples with excess OVCAR8 ratios were allowed to incubate overnight at 4° C. Samples with excess PBMCs were allowed to incubate for 1 hour at room temperature. Next, 80 μL of qPCR reaction mixture containing master mix and DNA ligase was added to each well. The plate was centrifuged at 2,500×g for 2 minutes. Samples were then added in triplicate (20 μL/well) to a 96-well PCR plate (ThermoFisher Scientific). PCR was run according to manufacturer's instructions using the QuantStudio 7 Pro Real-Time PCR System equipped with a 96-well, 0.2 mL block from ThermoFisher Scientific.
Remaining samples from experiments with excess PBMC ratios were analyzed using TNFα (Cat. No. 430204) ELISA MAX Deluxe Sets (BioLegend, San Diego, CA, USA) according to manufacturer's instructions. Briefly, 96-well Nunc™ MaxiSorp™ ELISA Plates (BioLegend, Cat. No. 423501) were coated with capture antibodies for TNFα and incubated overnight at 4° C. The next day, the plate was washed 4× with 1×PBS+0.05% Tween-20 (PBS-T). To block non-specific binding, 200 μL of assay dilutant buffer was added to each well and the plate was incubated at room temperature for 1 hour on a shaker. The plate was washed as before, and 100 μL of the samples or standards were added to each well in triplicate and incubated at room temperature for 2 hours on a shaker. The plate was washed 4× and 100 μL of detection antibody for TNFα was added to each well, and the plate was incubated at room temperature for 1 hour on a shaker. The plate was washed 4× and 100 μL of Avidin-HRP was added to each well, and the plate was incubated at room temperature for 30 minutes on a shaker.
Background: ELISA stands for enzyme-linked immunosorbent assay.

Structures are written as SMILES. “Also recorded” adds a separate entry of the source.

The source of these data is patent US20240327493A1 (GEORGE MASON UNIVERSITY, priority 2023, published 2024).

Take `CC[C@H](C)[C@@H]1NC(=O)[C@H](CCSC)NC(=O)[C@H](C)NC(=O)[C@H](CCCNC(=N)N)NC(=O)[C@@H](N)CSSC[C@@H](C(=O)O)NC(=O)[C@H]([C@@H](C)CC)NC(=O)[C@H](CCCNC(=N)N)N(C)C(=O)[C@H](CCCCN)NC(=O)[C@H](Cc2ccc(O)cc2)NC(=O)[C@H](CC(=O)O)NC(=O)[C@H](C)NC(=O)CNC(=O)CNC(=O)[C@H](Cc2ccc(O)cc2)NC(=O)[C@H](CO)NC1=O` [SEQ ID NO. 5, CRAMISYGGADYKXIC]: where the note is “listed as MN 1.4”, the “Immunosuppressive effect (reduction in TNFα/cytokines) compared with controls rPD-L1 and MN_Null” value is given as “less potent than recombinant PD-L1”; the TNFα levels result is recorded as “reduced in a dose-dependent manner”; the IL-2 levels entry is “reduced in a dose-dependent manner”. In addition, where the note is “listed as MN1.4”, the “Immunosuppressive effect (reduction in TNFα/cytokines) compared with controls rPD-L1 and MN_Null” value is “not a significant difference in cytokine levels between the MN1.4 and rPD-L1 treatment groups; also recorded: recapitulated the biological effects of full-length PD-L1; also recorded: the same reduction in TNFα as rPD-L1”; the TNFα levels result was “same pattern of T cell suppression was observed; also recorded: significantly decreased; also recorded: shown to decrease IL-2 and TNFα secretion; also recorded: A reduction in this cytokine was also observed”; the IL-2 levels result is “same pattern of T cell suppression was observed; also recorded: significantly decreased; also recorded: shown to decrease IL-2 and TNFα secretion; also recorded: A dose-dependent reduction in IL-2 was observed”.
